US11439622B2 (OXFORD UNIVERSITY INNOVATION LIMITED, priority 2015, dated 2022)

Legend:
Type in all cases: biochemical
IMP-1 (Imipenemase-1) = IMP-1 (Imipenemase-1) (Serratia marcescens, UniProt P52699); assay: Enzyme inhibition assay, IMP-1; conditions: for IC50: read-out: pIC50 IMP-1 (converted)
Protocol: (§1) The biological activity of the compounds of the present invention was tested using standard assay protocols.^7 The following representative enzymes NDM-1 (New Delhi metallo-β-lactamase-1), IMP-1 (Imipenemase-1) and VIM-2 (Veronese metallo-β-lactamase-2) were selected from different clinically relevant B1 metallo-β-lactamases.

[1] = target: NDM-1 (New Delhi metallo-β-lactamase-1) (Klebsiella pneumoniae, UniProt C7C422); assay: Enzyme inhibition assay, NDM-1; conditions: for IC50: read-out: pIC50 NDM-1 (converted)
Protocol: as §1

[2] = target: VIM-2 (Veronese metallo-β-lactamase-2) (Escherichia coli, UniProt Q5U7L7); assay: Enzyme inhibition assay, VIM-2; conditions: for IC50: read-out: pIC50 VIM-2 (converted)
Protocol: as §1

Sequence of IMP-1 (Imipenemase-1) (P52699 19-246, looked up, species assumed): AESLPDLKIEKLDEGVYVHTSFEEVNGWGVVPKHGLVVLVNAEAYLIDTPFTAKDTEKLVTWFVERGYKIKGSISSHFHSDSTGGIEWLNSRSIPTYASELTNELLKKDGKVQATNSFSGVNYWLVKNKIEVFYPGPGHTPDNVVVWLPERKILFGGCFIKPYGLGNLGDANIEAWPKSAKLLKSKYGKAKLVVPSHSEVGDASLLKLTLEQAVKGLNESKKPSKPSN
Sequence of NDM-1 (New Delhi metallo-β-lactamase-1) (C7C422 29-270, looked up, species assumed): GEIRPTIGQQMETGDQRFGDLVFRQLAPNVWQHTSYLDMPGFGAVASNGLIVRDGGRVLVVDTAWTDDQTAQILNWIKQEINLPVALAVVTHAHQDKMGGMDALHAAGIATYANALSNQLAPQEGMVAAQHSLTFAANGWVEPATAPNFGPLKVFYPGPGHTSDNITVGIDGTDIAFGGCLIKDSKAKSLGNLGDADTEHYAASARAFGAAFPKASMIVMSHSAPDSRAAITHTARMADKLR

| Structure (SMILES) | IC50 (IMP-1 (Imipenemase-1)) [nM] | IC50 [1] [nM] | IC50 [2] [nM] | pIC50 IMP-1 (IMP-1 (Imipenemase-1)) | pIC50 NDM-1 [1] | pIC50 VIM-2 [2] |
| --- | --- | --- | --- | --- | --- | --- |
| Cc1ccc2c(-c3ccc(C(N)=O)cc3)c(C(=O)O)[nH]c2c1 [Example 48, 3-(4-carbamoylphenyl)-6-methyl-1H-indole-2-carboxylic acid] | > 100000 | 631 | 3980 | – | – | – |
| Cc1c(Oc2ccccc2)ccc2c(-c3ccc(F)cc3)c(C(=O)O)[nH]c12 [Example 64, 3-(4-fluorophenyl)-7-methyl-6-phenoxy-1H-indole-2-carboxylic acid] | 1580 | 15.8 | 501 | – | – | – |
| Cc1cccc2c(-c3ccc(Cn4cncn4)cc3)c(C(=O)O)[nH]c12 [Example 33, 3-(4-((1H-1,2,4-triazol-1-yl)methyl)phenyl)-7-methyl-1H-indole-2-carboxylic acid] | 2000 | 5.01 | 251 | – | – | – |
| Cc1cccc2c(C3CCN(C(=O)OC(C)(C)C)CC3)c(C(=O)O)[nH]c12 [Example 105, 3-(1-tert-butoxycarbonyl-4-piperidyl)-7-methyl-1H-indole-2-carboxylic acid] | 31600 | 158 | 2510 | – | – | – |
| Cc1ccc2c(-c3ccc(S(N)(=O)=O)cc3)c(C(=O)O)[nH]c2c1 [Example 47, 6-methyl-3-(4-sulfamoylphenyl)-1H-indole-2-carboxylic acid] | 50100 | 398 | 7940 | – | – | – |
| CC(C)c1cccc2c(-c3ccc(S(=O)(=O)N(C)C)cc3)c(C(=O)O)[nH]c12 [Example 73] | 31.6 | 0.355 | 31.6 | – | – | – |
| Cc1cccc2c(-c3cccc(N(C)C)c3)c(C(=O)O)[nH]c12 [Example 17, 3-(3-(dimethylamino)phenyl)-7-methyl-1H-indole-2-carboxylic acid] | > 100000 | 200 | 501 | – | – | – |
| Cc1cccc2c(-c3ccc(S(=O)(=O)N(C)C)cc3)c(C(=O)O)[nH]c12 [Example 29, 3-(4-(N,N-dimethylsulfamoyl)phenyl)-7-methyl-1H-indole-2-carboxylic acid] | 794 | 5.01 | 251 | – | – | – |
| CC(C)c1cccc2c(-c3cc(F)cc(F)c3)c(C(=O)O)[nH]c12 [Example 78, 3-(3,5-difluorophenyl)-7-isopropyl-1H-indole-2-carboxylic acid] | 126 | 10 | 3.98 | – | – | – |
| COc1cccc2c(-c3ccc(F)cc3)c(C(=O)O)[nH]c12 [Example 50, 3-(4-fluorophenyl)-7-methoxy-1H-indole-2-carboxylic acid] | 25100 | 251 | 1000 | – | – | – |
| Cc1cccc2c(-c3ccc(C(N)=O)cc3)c(C(=O)O)[nH]c12 [Example 5, 3-(4-carbamoylphenyl)-7-methyl-1H-indole-2-carboxylic acid] | 7940 | 31.6 | 100 | – | – | – |
| O=C(O)c1[nH]c2c(CCOc3ccccc3)cccc2c1-c1ccc(F)cc1 [Example 62, 3-(4-fluorophenyl)-7-(2-phenoxyethyl)-1H-indole-2-carboxylic acid] | 316 | 5.01 | 158 | – | – | – |
| Cc1cccc2c(-c3ccc(C#N)cc3)c(C(=O)O)[nH]c12 [Example 7, 3-(4-cyanophenyl)-7-methyl-1H-indole-2-carboxylic acid] | 7940 | 39.8 | 200 | – | – | – |
| Cc1cccc2c(-c3ccc([N+](=O)[O-])cc3)c(C(=O)O)[nH]c12 [Example 8, 7-methyl-3-(4-nitrophenyl)-1H-indole-2-carboxylic acid] | 25100 | 79.4 | 251 | – | – | – |
| Cc1cccc2c(-c3ccccc3)c(C(=O)O)[nH]c12 [Example 37, 7-methyl-3-phenyl-1H-indole-2-carboxylate] | 10000 | 31.6 | 398 | – | – | – |
| CC(C)c1cccc2c(-c3ccccc3Cl)c(C(=O)O)[nH]c12 [Example 72, 3-(2-chlorophenyl)-7-isopropyl-1H-indole-2-carboxylic acid] | 2510 | 50.1 | 12.6 | – | – | – |
| Cc1cccc2c(-c3ccc(N4CCOCC4)cc3)c(C(=O)O)[nH]c12 [Example 13, 7-methyl-3-(4-morpholinophenyl)-1H-indole-2-carboxylic acid] | 10000 | 12.6 | 1580 | – | – | – |
| COc1cc(C)c2[nH]c(C(=O)O)c(-c3ccc(F)cc3)c2c1 [Example 60, 3-(4-fluorophenyl)-5-methoxy-7-methyl-1H-indole-2-carboxylic acid] | > 100000 | 126 | 631 | – | – | – |
| Cc1cccc2c(-c3ccc(-c4ccccc4)cc3)c(C(=O)O)[nH]c12 [Example 40, 3-([1,1′-biphenyl]-4-yl)-7-methyl-1H-indole-2-carboxylic acid] | 1580 | 15.8 | 251 | – | – | – |

| Structure (SMILES) | IC50 (IMP-1 (Imipenemase-1)) [nM] | IC50 [1] [nM] | IC50 [2] [nM] | pIC50 IMP-1 (IMP-1 (Imipenemase-1)) | pIC50 NDM-1 [1] | pIC50 VIM-2 [2] |
| --- | --- | --- | --- | --- | --- | --- |
| COc1ccc(-c2c(C(=O)O)[nH]c3c(C)cccc23)cc1 [Example 9, 3-(4-methoxyphenyl)-7-methyl-1H-indole-2-carboxylic acid] | 7940 | 50.1 | 251 | – | – | – |
| Cc1c(Oc2ccccc2)ccc2c(-c3ccc(Cl)cc3)c(C(=O)O)[nH]c12 [Example 85, 3-(4-chlorophenyl)-7-methyl-6-phenoxy-1H-indole-2-carboxylic acid] | 1000 | 100 | 158 | – | – | – |
| O=C(O)c1[nH]c2c(Cl)cccc2c1-c1ccc(F)cc1 [Example 54, 7-chloro-3-(4-fluorophenyl)-1H-indole-2-carboxylic acid] | 31600 | 251 | 794 | – | – | – |
| Cc1cccc2c(-c3ccn4ncnc4c3)c(C(=O)O)[nH]c12 [Example 21, 3-([1,2,4]triazolo[1,5-a]pyridin-7-yl)-7-methyl-1H-indole-2-carboxylic acid] | > 100000 | 126 | 126 | – | – | – |
| CN(C)C(=O)c1ccc(-c2c(C(=O)O)[nH]c3c(CCOc4ccccc4)cccc23)cc1 [Example 83, 3-(4-(dimethylcarbamoyl)phenyl)-7-(2-phenoxyethyl)-1H-indole-2-carboxylic acid] | 63.1 | 3.98 | 100 | – | – | – |
| Cc1cccc2c(-c3ccc(F)cc3)c(C(=O)O)[nH]c12 [Example 49, 3-(4-fluorophenyl)-7-methyl-1H-indole-2-carboxylic acid] | 15800 | 31.6 | 501 | – | – | – |
| CC(C)NC(=O)c1[nH]c2c(C(C)C)cccc2c1-c1ccc(S(=O)(=O)N(C)C)cc1 [Example 123, 3-(4-(N,N-dimethylsulfamoyl)phenyl)-N,7-diisopropyl-1H-indole-2-carboxamide] | – | – | – | N.I. | N.I. | N.I. |
| COCCc1cccc2c(-c3ccc(F)cc3)c(C(=O)O)[nH]c12 [Example 61, 3-(4-fluorophenyl)-7-(2-methoxyethyl)-1H-indole-2-carboxylic acid] | 1260 | 31.6 | 316 | – | – | – |
| CC(C)c1cccc2c(-c3ccc(C(N)=O)cc3)c(C(=O)O)[nH]c12 [Example 69, 3-(4-carbamoylphenyl)-7-isopropyl-1H-indole-2-carboxylic acid] | 12.6 | 2.51 | 7.94 | – | – | – |
| CC(C)c1cccc2c(-c3ccc(S(N)(=O)=O)cc3)c(C(=O)O)[nH]c12 [Example 65, 7-isopropyl-3-(4-sulfamoylphenyl)-1H-indole-2-carboxylic acid] | 31.6 | 1.58 | 12.6 | – | – | – |
| Cc1cccc2c(-c3ccc(C4CC4)cc3)c(C(=O)O)[nH]c12 [Example 45, 3-(4-cyclopropylphenyl)-7-methyl-1H-indole-2-carboxylic acid] | 3980 | 31.6 | 316 | – | – | – |
| Cc1cccc2c(-c3cccc([N+](=O)[O-])c3)c(C(=O)O)[nH]c12 [Example 15, 7-methyl-3-(3-nitrophenyl)-1H-indole-2-carboxylic acid] | 15800 | 25.1 | 126 | – | – | – |
| Cc1cccc2c(-c3cnn(C)c3)c(C(=O)O)[nH]c12 [Example 26, 7-methyl-3-(1-methyl-1H-pyrazol-4-yl)-1H-indole-2-carboxylic acid] | 39800 | 100 | 2510 | – | – | – |
| Cc1cc(F)cc2c(-c3ccc(F)cc3)c(C(=O)O)[nH]c12 [Example 58, 5-fluoro-3-(4-fluorophenyl)-7-methyl-1H-indole-2-carboxylic acid] | 15800 | 31.6 | 794 | – | – | – |
| Cc1cccc2c(C3=CCN(C(=O)OC(C)(C)C)CC3)c(C(=O)O)[nH]c12 [Example 25, 3-(1-(tert-butoxycarbonyl)-1,2,3,6-tetrahydropyridin-4-yl)-7-methyl-1H-indole-2-carboxylic acid] | 5010 | 31.6 | 2000 | – | – | – |
| Cc1c(Oc2ccccc2)ccc2c(-c3ccc(S(=O)(=O)N(C)C)cc3)c(C(=O)O)[nH]c12 [Example 82, 3-(4-(N,N-dimethylsulfamoyl)phenyl)-7-methyl-6-phenoxy-1H-indole-2-carboxylic acid] | 501 | 3.98 | 158 | – | – | – |
| CC(C)c1cccc2c(-c3ccncc3)c(C(=O)O)[nH]c12 [Example 68, 7-isopropyl-3-(pyridin-4-yl)-1H-indole-2-carboxylic acid] | 39.8 | 6.31 | 31.6 | – | – | – |
| Cc1cccc2c(-c3cccnc3)c(C(=O)O)[nH]c12 [Example 24, 7-methyl-3-(pyridin-3-yl)-1H-indole-2-carboxylic acid] | 12600 | 100 | 631 | – | – | – |
